From publication PMC11302837, “Efficacy of BRAF/MEK-inhibitor therapy for epithelioid glioblastoma with a novel BRAFV600 mutation” (Acta Neuropathologica Communications, 2024)

Key:
[1] = set-up: method as in earlier work; conditions: serum of patients; ref EMA product information sheet, Delord et al., 2017 [29], Sullivan et al., 2020 [30]; cited from earlier work
[2] = Concentration of BRAF/MEK inhibitors in patient serum/plasma by LC-MS/MS; assay type: in vivo, human; conditions: encorafenib/binimetinib given day 1-3 then discontinued, dabrafenib/trametinib from day 4
Protocol: (§1) Determination of BRAF/MEK inhibitors concentration in plasma and CSF of patients by liquid chromatography–tandem mass spectrometry
Sample preparation of plasma and CSF samples was different. Twenty microliters of plasma were diluted with 180 µL of water and mixed with 200 µL formic acid (1%). An automated solid phase extraction with an ASPEC XL (Gilson, Middleton, USA) and Oasis HLB (Waters, Milford, USA) cartridges were used. The cartridges were conditioned, loaded, washed and finally eluted with 1 mL methanol. The SPE extracts were evaporated to dryness and reconstituted with 200 µL. For quantification, 10-point external calibration curves in blank plasma at the range from 1.95 to 1000 µg/L for all four substances were freshly prepared and measured in parallel.
(§2) Native CSF samples were used with a standard addition method for quantification. A volume of 20 µl was always injected into the Ultimate 3000 HPLC system from Thermo Scientific system coupled to an API4000 tandem mass spectrometer (ABSciex, Darmstadt, Germany). The BRAF and MEK inhibitors encorafenib, binimetinib, dabrafenib and trametinib were separated by reversed phase chromatography with a Synergi 4 μm Hydro-RP 80 A, 150 × 3 mm column (Phenomenex, Torrance, USA).
(§3) The temperature of column was constantly at 40 °C. Determination of the analytes was performed using the multiple reaction monitoring mode with nitrogen as collision gas. For positive ionization, a capillary voltage of 4000 V (positive ion mode) was used. Quantification was performed by the peak area method, and a weighted (1/x) regression of first order yielded the concentrations.
(§4) Moreover, comprehensive analyses of the patients’ CSF and plasma using liquid chromatography-tandem mass spectrometry were performed to determine the concentrations of various MAPKi two, four, and five days after regimen modification, i.e. five, seven, and eight days following initiation of the targeted therapy. There was a clear accumulation of all MAPKi in the patient’s plasma (Table 2). The concentrations determined reside within the therapeutic range of the maximum and minimum plasma concentrations published (Table 2).

[3] = Concentration of BRAF/MEK inhibitors in patient CSF by LC-MS/MS; assay type: in vivo, human; conditions: for CSF concentration: CSF via EVD; for Kp: human, CSF/serum, oral
Protocol: as §1, §2, §3, §4

[4] = Tolerability of oral regimen in the patient; assay type: in vivo, human; conditions: oral hard capsules and tablets; quantity and size
Protocol: Based on the promising results of the mutational and IHC analyses, a targeted therapy with the BRAF inhibitor, encorafenib and the MEK inhibitor, binimetinib was initiated. The dosage mirrored that of MM with 450 mg of encorafenib (i.e. 6 × 75 mg) administrated daily, and 45 mg of binimetinib (i.e. 3 × 15 mg), administrated twice daily. […] Consequently, after three days, the regimen was modified.

[5] = day 5 after treatment initiation
[6] = day 7 after treatment initiation
[7] = day 8 after treatment initiation

| Compound | C max (maximum plasma concentration) [1] | C min (minimum plasma concentration) [1] | Serum concentration [2, 5] | Serum concentration [2, 6] | Serum concentration [2, 7] | CSF concentration [3, 5] | CSF concentration [3, 6] | CSF concentration [3, 7] | Kp [3, 5] | Kp [3, 6] | Kp [3, 7] | Tolerability by the patient [4] |
| --- | --- | --- | --- | --- | --- | --- | --- | --- | --- | --- | --- | --- |
| Cn1cnc2c(F)c(Nc3ccc(Br)cc3F)c(C(=O)NOCCO)cc21 [Binimetinib, binimetinib] | 654 ng/mL | 51.4 ng/mL | 96.5 ng/mL | 19.1 ng/mL | 13.8 ng/mL | 10.3 ng/mL | 5.3 ng/mL | 5.0 ng/mL | 0.107 | 0.277 | 0.362 | poorly tolerated |
| COC(=O)N[C@@H](C)CNc1nccc(-c2cn(C(C)C)nc2-c2cc(Cl)cc(NS(C)(=O)=O)c2F)n1 [Encorafenib, encorafenib] | 3800 ng/mL | 13.9 ng/mL | 13.5 ng/mL | 5.7 ng/mL | 6.1 ng/mL | 2.4 ng/mL | 1.1 ng/mL | 1.1 ng/mL | 0.178 | 0.193 | 0.18 | poorly tolerated |
| CC(C)(C)c1nc(-c2cccc(NS(=O)(=O)c3c(F)cccc3F)c2F)c(-c2ccnc(N)n2)s1 [Dabrafenib, dabrafenib] | 1478 ng/mL | 26 ng/mL | 322.9 ng/mL | 188.0 ng/mL | 94.6 ng/mL | 5.4 ng/mL | 6.1 ng/mL | 1.5 ng/mL | 0.017 | 0.032 | 0.016 | better tolerated |
| CC(=O)Nc1cccc(-n2c(=O)n(C3CC3)c(=O)c3c(Nc4ccc(I)cc4F)n(C)c(=O)c(C)c32)c1 [Trametinib, trametinib] | 22.2 ng/mL | 12.1 ng/mL | 8.8 ng/mL | 7.7 ng/mL | 9.2 ng/mL | 0.0 ng/mL | 0.3 ng/mL | 0.4 ng/mL | 0 | 0.039 | 0.043 | better tolerated |
